The target in test [1] is T1, Glutaminase kidney isoform, mitochondrial (Homo sapiens, UniProt O94925).
T1 sequence (O94925 whole entry): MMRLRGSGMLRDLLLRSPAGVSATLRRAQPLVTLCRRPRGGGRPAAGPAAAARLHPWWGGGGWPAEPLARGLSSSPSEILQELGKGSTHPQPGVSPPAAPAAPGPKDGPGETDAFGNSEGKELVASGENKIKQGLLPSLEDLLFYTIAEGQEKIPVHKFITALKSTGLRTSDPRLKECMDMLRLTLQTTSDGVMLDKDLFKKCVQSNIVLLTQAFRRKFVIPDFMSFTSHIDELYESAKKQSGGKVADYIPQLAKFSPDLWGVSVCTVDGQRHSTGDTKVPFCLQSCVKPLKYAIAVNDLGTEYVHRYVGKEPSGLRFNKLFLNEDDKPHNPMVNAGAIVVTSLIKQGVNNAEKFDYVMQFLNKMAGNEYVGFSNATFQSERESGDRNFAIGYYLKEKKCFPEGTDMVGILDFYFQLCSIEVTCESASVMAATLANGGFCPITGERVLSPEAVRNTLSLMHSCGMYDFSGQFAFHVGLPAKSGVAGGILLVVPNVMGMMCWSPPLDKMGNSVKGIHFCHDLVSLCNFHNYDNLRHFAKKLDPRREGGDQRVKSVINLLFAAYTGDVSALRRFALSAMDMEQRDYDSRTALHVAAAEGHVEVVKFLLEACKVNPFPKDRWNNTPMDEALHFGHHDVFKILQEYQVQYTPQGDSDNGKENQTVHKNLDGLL
Kind of test: Inhibition of GLS1 (unknown origin).

The test system of test [2] is A549. Kind of test: Antiproliferative activity against human A549 cells assessed as reduction in cell viability. In kind it is functional, cell-based.
Test [3] relates to HCT-116. Put plainly: cells. To be noted: Homo sapiens.

The IC50 is the concentration that inhibits the measured activity by half. Consider `O=C(Cc1ccccc1)Nc1nnc(CCc2ccc(C(=O)NCCN3CCCC3)cc2)s1`, for which the IC50 in test [1], in test [2] and in test [3] was above 10 µM throughout.
`O=C(Cc1ccccc1)Nc1nnc(N2CCN(Cc3cccc(C(=O)NCc4ccc(C(F)(F)F)cc4)c3)CC2)s1`: the IC50 in test [2] and in test [3] was above 10 µM each time.
For the molecule `O=C(Cc1ccccc1)Nc1nnc(N2CCN(Cc3cccc(C(=O)NCCN4CCCCC4)c3)CC2)s1`, the results for the IC50 in test [1], in test [2] and in test [3] were 0.212 µM, 2.03 µM and 1.67 µM, respectively.
With `O=C(Cc1ccccc1)Nc1nnc(N2CCN(Cc3ccc(C(=O)N4CCC(CO)CC4)cc3)CC2)s1`, the IC50 in test [1] was determined as 0.363 µM; in test [2], 4.06 µM; in test [3], 3.92 µM.
For the molecule `O=C(Cc1ccccc1)Nc1ccc(CN2CCN(c3nnc(NC(=O)Cc4ccccc4)s3)CC2)cc1`, the IC50 in test [2] and in test [3] was above 10 µM each time.
`O=C(Cc1ccccc1)Nc1nnc(N2CCC(CCOCc3cccc(C(=O)N4CCN(c5cccc(F)c5)CC4)c3)CC2)s1`: the 50% inhibitory concentration (IC50) stood at 0.546 µM in test [1], 7.42 µM in test [2] and 8.52 µM in test [3].
The matching figures for `CN1CCN(c2ccc(C(=O)Nc3cccc(CN4CCN(c5nnc(NC(=O)Cc6ccccc6)s5)CC4)c3)cc2)CC1`: 0.089 µM, 1.05 µM and 1.53 µM.
On to `Cc1cccc(CN(C)C(=O)c2ccc(CN3CCN(c4nnc(NC(=O)Cc5ccccc5)s4)CC3)cc2)c1`, for which the IC50 was above 1 µM in test [1], above 10 µM in test [2] and above 10 µM in test [3].
With `CCCCN1CCC(CNC(=O)c2ccc(COCCC3CCN(c4nnc(NC(=O)Cc5ccccc5)s4)CC3)cc2)CC1`, the IC50 in test [1] stood at 0.12 µM; in test [2], 1.29 µM; in test [3], 0.91 µM.
Take `CN1CCN(c2ccc(NC(=O)c3ccc(CN4CCN(c5nnc(NC(=O)Cc6ccccc6)s5)CC4)cc3)cc2)CC1`: the IC50 worked out at 0.25 µM in test [1], 1.28 µM in test [2] and 0.67 µM in test [3].
In the case of `O=C(Cc1ccccc1)Nc1nnc(N2CCN(Cc3ccc(C(=O)NCCN4CCCCC4)cc3)CC2)s1`, the figures for the half-maximal inhibitory concentration (IC50) in test [1], in test [2] and in test [3] were 0.162 µM, 3.28 µM and 1.09 µM, respectively.
Turning to `O=C(Cc1ccccc1)Nc1nnc(N2CCN(Cc3ccc(C(=O)NCc4cccc(C(F)(F)F)c4)cc3)CC2)s1`, the results for the IC50 in test [1], in test [2] and in test [3] were 0.253 µM, 1.85 µM and 1.49 µM, respectively.
With `CCN(CC)CCNC(=O)c1ccc(COCCC2CCN(c3nnc(NC(=O)Cc4ccccc4)s3)CC2)cc1`, the IC50 came out at 0.44 µM in test [1], 4.38 µM in test [2] and 1.2 µM in test [3].
`CCCCNC(=O)c1ccc(COCC2CCN(c3nnc(NC(=O)Cc4ccccc4)s3)CC2)cc1`: the figures for the IC50 in test [1], in test [2] and in test [3] were 0.53 µM, 5.84 µM and 4.98 µM, respectively.
Consider `CCCNC(=O)c1ccc(COCCC2CCN(c3nnc(NC(=O)Cc4ccccc4)s3)CC2)cc1`, for which the results for the IC50 in test [1], in test [2] and in test [3] were 0.42 µM, 3.45 µM and 2.89 µM, respectively.
As for `O=C(Cc1ccccc1)Nc1nnc(N2CCC(CCOCc3ccc(C(=O)NCC4CCN(Cc5cc(F)cc(F)c5)CC4)cc3)CC2)s1`, the figures for the IC50 in test [1], in test [2] and in test [3] were 0.12 µM, 1.89 µM and 0.8 µM, respectively.
Take `CC(C)N1CCC(CNC(=O)c2cccc(COCCC3CCN(c4nnc(NC(=O)Cc5ccccc5)s4)CC3)c2)CC1`: the IC50 in test [2] and in test [3] was above 10 µM throughout.
Consider `O=C(Cc1ccccc1)Nc1cccc(CN2CCN(c3nnc(NC(=O)Cc4ccccc4)s3)CC2)c1`, for which the IC50 in test [2] and in test [3] was above 10 µM throughout.
`O=C(Cc1ccccc1)Nc1nnc(N2CCN(Cc3cccc(C(=O)NCCc4ccc(F)cc4)c3)CC2)s1`: the IC50 in test [2] and in test [3] was above 10 µM each time.
As to `CC(C)c1ccc(CNC(=O)c2cccc(CN3CCN(c4nnc(NC(=O)Cc5ccccc5)s4)CC3)c2)cc1`, the concentration for half-maximal inhibition (IC50) in test [2] and in test [3] was above 10 µM in each case.
